Drawing on the NIST ThermoML archive (doi:10.1016/j.jct.2009.11.020), this text covers refractive index and mass density for 3 compounds.

A short description of data set [1]: refractive index (Na D-line) (dimensionless). As to conditions: 293.15 K; 101.33 kPa; Liquid; Standard Abbe refractometry.
The conditions of data set [2]: 293.15 K; 101.33 kPa; Liquid; Vibrating tube method.

Molecules are shown by their SMILES. Numbers after ± are expanded uncertainties.

Regarding `OCC(O)CO` [glycerol], the refractive index in data set [1] worked out at 1.474 ± 0.001. Moreover, the mass density in data set [2] is reported as 1261.3 ± 0.5 kg/m3.
As for `CO` [methanol], in data set [1], the refractive index worked out at 1.328 ± 0.001. Also, in data set [2], the mass density amounted to 791.03 ± 0.23 kg/m3.
On to `O` [water], for which the refractive index in data set [1] was 1.333 ± 0.001.
